# Source: US9505750B2, “5-aminocyclylmethyl-oxazolidin-2-one derivatives” (priority 2007, dated 2016)
# Test system: M. catarrhalis A894
# Test: MIC determination by microdilution in cation-adjusted Mueller-Hinton Broth (NCCLS)
# Format: cell-based
# Settings: Moraxella catarrhalis, pH 7.2-7.3
# Procedure: These assays have been performed following the description given in “Methods for dilution Antimicrobial Susceptibility Tests for Bacteria that Grow Aerobically, 4th ed.; Approved standard: NCCLS Document M7-A4; National Committee for Clinical Laboratory Standards: Villanova, Pa., USA, 1997”. Minimal inhibitory concentrations (MICs; mg/l) were determined in cation-adjusted Mueller-Hinton Broth (BBL) by a microdilution method following NCCLS guidelines (National Committee for Clinical Laboratory Standards. Methods for Dilution Antimicrobial Susceptibility). The pH of the test medium was 7.2-7.3. All Example compounds were tested against several Gram-positive and Gram-negative bacteria.
row,MIC,Compound
1,≤ 0.031 µg/mL,"COc1ccc2nccc(NC3CN(C[C@@H]4CN(c5ccc6c(c5)NC(=O)CS6)C(=O)O4)C3)c2n1 [Example 36, 6-{(R)-5-[3-(6-methoxy-[1,5]naphthyridin-4-ylamino)-azetidin-1-ylmethyl]-2-oxo-oxazolidin-3-yl}-4H-benzo[1,4]thiazin-3-one]"
2,≤ 0.031 µg/mL,"COc1ccc2ncc(F)c(CNC3CN(C[C@@H]4CN(c5ccc6c(c5)NC(=O)CO6)C(=O)O4)C3)c2c1 [Example 28, 6-((R)-5-{3-[(3-fluoro-6-methoxy-quinolin-4-ylmethyl)-amino]-azetidin-1-ylmethyl}-2-oxo-oxazolidin-3-yl)-4H-benzo[1,4]oxazin-3-one]"
3,0.063 µg/mL,"COc1ccc2nccc(CNC3CN(C[C@@H]4CN(c5ccc6c(c5)NC(=O)CO6)C(=O)O4)C3)c2c1 [Example 29, 6-((R)-5-{3-[(6-methoxy-quinolin-4-ylmethyl)-amino]-azetidin-1-ylmethyl}-2-oxo-oxazolidin-3-yl)-4H-benzo[1,4]oxazin-3-one]"
4,0.125 µg/mL,"COc1ccc2nccc(NC3CN(C[C@@H]4CN(c5ccc6c(c5)NC(=O)CS6)C(=O)O4)C3)c2c1 [Example 37, 6-{(R)-5-[3-(6-methoxy-quinolin-4-ylamino)-azetidin-1-ylmethyl]-2-oxo-oxazolidin-3-yl}-4H-benzo[1,4]thiazin-3-one]"
5,0.063 µg/mL,"O=C1CSc2ccc(N3C[C@@H](CN4CC(Nc5ccnc6ccc(F)cc56)C4)OC3=O)cc2N1 [Example 39, 6-{(R)-5-[3-(6-fluoro-quinolin-4-ylamino)-azetidin-1-ylmethyl]-2-oxo-oxazolidin-3-yl}-4H-benzo[1,4]thiazin-3-one]"
6,≤ 0.031 µg/mL,"COc1ccc2nccc(CNC3CN(C[C@@H]4CN(c5ccc6c(c5)NC(=O)CO6)C(=O)O4)C3)c2n1 [Example 27, 6-((R)-5-{3-[(6-methoxy-[1,5]naphthyridin-4-ylmethyl)-amino]-azetidin-1-ylmethyl}-2-oxo-oxazolidin-3-yl)-4H-benzo[1,4]oxazin-3-one]"
7,0.5 µg/mL,"COc1ccc2nccc(NC3CCN(C[C@@H]4CN(c5ccc6c(c5)NC(=O)CS6)C(=O)O4)CC3)c2c1 [Example 41, 6-{(R)-5-[4-(6-methoxy-quinolin-4-ylamino)-piperidin-1-ylmethyl]-2-oxo-oxazolidin-3-yl}-4H-benzo[1,4]thiazin-3-one]"
8,≤ 0.031 µg/mL,"COc1ccc2nccc(NC3CCN(C[C@@H]4CN(c5ccc6c(c5)NC(=O)CS6)C(=O)O4)CC3)c2n1 [Example 40, 6-{(R)-5-[4-(6-methoxy-[1,5]naphthyridin-4-ylamino)-piperidin-1-ylmethyl]-2-oxo-oxazolidin-3-yl}-4H-benzo[1,4]thiazin-3-one]"
9,≤ 0.031 µg/mL,"COc1ccc2nccc(NC3CCN(C[C@@H]4CN(c5ccc6c(c5)NC(=O)CO6)C(=O)O4)CC3)c2n1 [Example 35, 6-{(R)-5-[4-(6-methoxy-[1,5]naphthyridin-4-ylamino)-piperidin-1-ylmethyl]-2-oxo-oxazolidin-3-yl}-4H-benzo[1,4]oxazin-3-one]"

# Further lines, the compound ahead of its results:
row,Compound,MIC
1,"COc1ccc2ncnc(O[C@H]3CN(C[C@@H]4CN(c5ccc6c(c5)NC(=O)CS6)C(=O)O4)C[C@H]3O)c2c1 (relative stereo) [Example 21, 6-{(R)-5-[(3R*,4S*)-3-hydroxy-4-(6-methoxy-quinazolin-4-yloxy)-pyrrolidin-1-ylmethyl]-2-oxo-oxazolidin-3-yl}-4H-benzo[1,4]thiazin-3-one]",≤ 0.031 µg/mL
2,"COc1ccc2ncnc(OC3CCN(C[C@@H]4CN(c5ccc6c(c5)OCCO6)C(=O)O4)C3)c2c1 (mixture of isomers) [Example 4, (R)-3-(2,3-dihydro-benzo[1,4]dioxin-6-yl)-5-[(RS)-3-(6-methoxy-quinazolin-4-yloxy)-pyrrolidin-1-ylmethyl]-oxazolidin-2-one]",≤ 0.031 µg/mL
3,"COc1ccc2ncnc(OC3CCN(C[C@@H]4CN(c5ccc6c(c5)NC(=O)CS6)C(=O)O4)CC3)c2c1 [Example 20, 6-{(R)-5-[4-(6-methoxy-quinazolin-4-yloxy)-piperidin-1-ylmethyl]-2-oxo-oxazolidin-3-yl}-4H-benzo[1,4]thiazin-3-one]",≤ 0.031 µg/mL
4,"COc1ccc2nccc(/C=C/C3CCN(C[C@@H]4CN(c5ccc6c(c5)NC(=O)CS6)C(=O)O4)C3)c2n1 (mixture of isomers) [Example 9, 6-((R)-5-{(RS)-3-[(E)-2-(6-methoxy-[1,5]naphthyridin-4-yl)-vinyl]-pyrrolidin-1-ylmethyl}-2-oxo-oxazolidin-3-yl)-4H-benzo[1,4]thiazin-3-one]",≤ 0.031 µg/mL
5,"COc1ccc2ncnc(O[C@@H]3CN(C[C@@H]4CN(c5ccc6c(c5)NC(=O)CS6)C(=O)O4)C[C@H]3n3ccnn3)c2c1 (relative stereo) [Example 16, 6-{(R)-5-[(3R*,4R*)-3-(6-methoxy-quinazolin-4-yloxy)-4-[1,2,3]triazol-1-yl-pyrrolidin-1-ylmethyl]-2-oxo-oxazolidin-3-yl}-4H-benzo[1,4]thiazin-3-one]",≤ 0.031 µg/mL
6,"COc1ccc2ncnc(O[C@H]3C[C@@H](CO)N(C[C@@H]4CN(c5ccc6c(c5)NC(=O)CS6)C(=O)O4)C3)c2c1 [Example 5, 6-{(R)-5-[(2S,4S)-2-hydroxymethyl-4-(6-methoxy-quinazolin-4-yloxy)-pyrrolidin-1-ylmethyl]-2-oxo-oxazolidin-3-yl}-4H-benzo[1,4]thiazin-3-one]",≤ 0.031 µg/mL
7,"COc1cnc2cccc(C(O)C3(O)CCN(C[C@@H]4CN(c5ccc6c(c5)NC(=O)CS6)C(=O)O4)CC3)c2n1 (mixture of isomers) [Example 13, 6-((R)-5-{4-hydroxy-4-[(RS)-hydroxy-(3-methoxy-quinoxalin-5-yl)-methyl]-piperidin-1-ylmethyl}-2-oxo-oxazolidin-3-yl)-4H-benzo[1,4]thiazin-3-one]",0.5 µg/mL
8,"COc1ccc2nccc(CCC3CCN(C[C@@H]4CN(c5ccc6c(c5)NC(=O)CS6)C(=O)O4)C3)c2n1 (mixture of isomers) [Example 10, 6-((R)-5-{(RS)-3-[2-(6-methoxy-[1,5]naphthyridin-4-yl)-ethyl]-pyrrolidin-1-ylmethyl}-2-oxo-oxazolidin-3-yl)-4H-benzo[1,4]thiazin-3-one]",≤ 0.031 µg/mL
